In patent US20260265238A1, “COMPOUNDS AND PHARMACEUTICAL COMPOSITIONS THAT DEGRADE SWI/SNF-RELATED MATRIX-ASSOCIATED ACTIN-DEPENDENT REGULATOR OF CHROMATIN SUBFAMILY A” (Plexium, Inc., priority 2023, published 2026):

Key:
[1] = molecular target: T1, SMARCA4-HiBiT HeLa cells (protein which is expressed from the SMARCA4 gene) (Homo sapiens, UniProt P51532); experiment: SMARCA4 degradation assay (HiBiT-fusion HeLa cell line, 24 h, luminescence); type: cell-based
T1 construct: protein which is expressed from the SMARCA2 and SMARCA4 genes; host or cells: HeLa (SMARCA4-HiBiT engineered line)
T1 sequence (P51532 whole entry, the tested form may be a part): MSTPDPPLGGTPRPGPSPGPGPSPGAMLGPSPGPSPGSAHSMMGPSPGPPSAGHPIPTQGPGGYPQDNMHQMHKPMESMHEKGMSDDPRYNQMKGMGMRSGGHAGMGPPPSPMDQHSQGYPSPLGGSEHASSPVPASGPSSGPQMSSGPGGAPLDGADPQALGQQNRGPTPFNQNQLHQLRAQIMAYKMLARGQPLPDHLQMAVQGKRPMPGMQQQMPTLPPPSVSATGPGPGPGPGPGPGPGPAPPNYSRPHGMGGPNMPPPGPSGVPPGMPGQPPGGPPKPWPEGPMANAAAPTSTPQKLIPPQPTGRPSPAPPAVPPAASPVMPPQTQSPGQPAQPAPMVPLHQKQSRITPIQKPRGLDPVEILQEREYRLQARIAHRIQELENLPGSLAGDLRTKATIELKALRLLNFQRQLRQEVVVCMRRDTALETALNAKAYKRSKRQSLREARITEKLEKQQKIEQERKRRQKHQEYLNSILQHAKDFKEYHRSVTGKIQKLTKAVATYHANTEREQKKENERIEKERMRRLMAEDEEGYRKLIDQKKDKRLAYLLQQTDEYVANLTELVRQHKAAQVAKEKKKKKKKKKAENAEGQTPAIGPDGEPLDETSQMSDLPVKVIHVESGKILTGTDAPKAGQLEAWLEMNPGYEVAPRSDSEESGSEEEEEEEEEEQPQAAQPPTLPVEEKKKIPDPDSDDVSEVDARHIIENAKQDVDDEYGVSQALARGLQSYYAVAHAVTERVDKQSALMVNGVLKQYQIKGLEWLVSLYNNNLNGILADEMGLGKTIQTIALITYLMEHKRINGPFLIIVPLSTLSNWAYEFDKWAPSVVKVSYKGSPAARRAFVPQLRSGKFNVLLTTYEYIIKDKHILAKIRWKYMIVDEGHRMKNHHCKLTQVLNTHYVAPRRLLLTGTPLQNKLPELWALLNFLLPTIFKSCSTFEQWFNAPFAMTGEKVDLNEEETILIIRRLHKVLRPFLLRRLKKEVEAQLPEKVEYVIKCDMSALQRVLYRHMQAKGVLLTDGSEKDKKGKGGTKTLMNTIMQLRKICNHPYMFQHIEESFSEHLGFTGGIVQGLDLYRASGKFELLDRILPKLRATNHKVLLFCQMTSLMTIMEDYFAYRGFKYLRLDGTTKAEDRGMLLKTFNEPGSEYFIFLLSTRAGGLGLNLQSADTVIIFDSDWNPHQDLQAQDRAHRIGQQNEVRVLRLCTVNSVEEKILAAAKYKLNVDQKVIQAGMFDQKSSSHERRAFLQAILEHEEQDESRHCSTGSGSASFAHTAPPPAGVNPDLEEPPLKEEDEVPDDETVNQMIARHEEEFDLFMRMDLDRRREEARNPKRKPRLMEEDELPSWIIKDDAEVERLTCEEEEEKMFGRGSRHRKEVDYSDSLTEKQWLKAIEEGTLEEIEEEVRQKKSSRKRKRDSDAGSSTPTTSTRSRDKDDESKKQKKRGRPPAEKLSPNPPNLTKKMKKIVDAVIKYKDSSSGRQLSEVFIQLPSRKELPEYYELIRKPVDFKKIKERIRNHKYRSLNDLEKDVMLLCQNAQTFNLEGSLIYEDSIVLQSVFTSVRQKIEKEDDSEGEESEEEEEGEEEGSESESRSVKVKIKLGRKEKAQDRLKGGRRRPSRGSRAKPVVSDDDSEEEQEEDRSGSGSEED
Outline: (§1)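 SMARCA2- or SMARCA4-HiBiT HeLa cells seeded overnight at 37° C, then given compound as a 10-point dilution (typically 10 μM to 300 pM) for 24 h at 37° C. Protein level read by HiBiT lytic detection luminescence; DC50 from dose-response curves; degradation also scored at 1 μM.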

[2] = molecular target: T2, SMARCA2-HiBiT HeLa cells (protein which is expressed from the SMARCA2 gene) (Homo sapiens, UniProt P51531); experiment: SMARCA2 degradation assay (HiBiT-fusion HeLa cell line, 24 h, luminescence); type: cell-based
T2 construct: protein which is expressed from the SMARCA2 and SMARCA4 genes; host or cells: HeLa (SMARCA2-HiBiT engineered line)
T2 sequence (P51531 whole entry, the tested form may be a part): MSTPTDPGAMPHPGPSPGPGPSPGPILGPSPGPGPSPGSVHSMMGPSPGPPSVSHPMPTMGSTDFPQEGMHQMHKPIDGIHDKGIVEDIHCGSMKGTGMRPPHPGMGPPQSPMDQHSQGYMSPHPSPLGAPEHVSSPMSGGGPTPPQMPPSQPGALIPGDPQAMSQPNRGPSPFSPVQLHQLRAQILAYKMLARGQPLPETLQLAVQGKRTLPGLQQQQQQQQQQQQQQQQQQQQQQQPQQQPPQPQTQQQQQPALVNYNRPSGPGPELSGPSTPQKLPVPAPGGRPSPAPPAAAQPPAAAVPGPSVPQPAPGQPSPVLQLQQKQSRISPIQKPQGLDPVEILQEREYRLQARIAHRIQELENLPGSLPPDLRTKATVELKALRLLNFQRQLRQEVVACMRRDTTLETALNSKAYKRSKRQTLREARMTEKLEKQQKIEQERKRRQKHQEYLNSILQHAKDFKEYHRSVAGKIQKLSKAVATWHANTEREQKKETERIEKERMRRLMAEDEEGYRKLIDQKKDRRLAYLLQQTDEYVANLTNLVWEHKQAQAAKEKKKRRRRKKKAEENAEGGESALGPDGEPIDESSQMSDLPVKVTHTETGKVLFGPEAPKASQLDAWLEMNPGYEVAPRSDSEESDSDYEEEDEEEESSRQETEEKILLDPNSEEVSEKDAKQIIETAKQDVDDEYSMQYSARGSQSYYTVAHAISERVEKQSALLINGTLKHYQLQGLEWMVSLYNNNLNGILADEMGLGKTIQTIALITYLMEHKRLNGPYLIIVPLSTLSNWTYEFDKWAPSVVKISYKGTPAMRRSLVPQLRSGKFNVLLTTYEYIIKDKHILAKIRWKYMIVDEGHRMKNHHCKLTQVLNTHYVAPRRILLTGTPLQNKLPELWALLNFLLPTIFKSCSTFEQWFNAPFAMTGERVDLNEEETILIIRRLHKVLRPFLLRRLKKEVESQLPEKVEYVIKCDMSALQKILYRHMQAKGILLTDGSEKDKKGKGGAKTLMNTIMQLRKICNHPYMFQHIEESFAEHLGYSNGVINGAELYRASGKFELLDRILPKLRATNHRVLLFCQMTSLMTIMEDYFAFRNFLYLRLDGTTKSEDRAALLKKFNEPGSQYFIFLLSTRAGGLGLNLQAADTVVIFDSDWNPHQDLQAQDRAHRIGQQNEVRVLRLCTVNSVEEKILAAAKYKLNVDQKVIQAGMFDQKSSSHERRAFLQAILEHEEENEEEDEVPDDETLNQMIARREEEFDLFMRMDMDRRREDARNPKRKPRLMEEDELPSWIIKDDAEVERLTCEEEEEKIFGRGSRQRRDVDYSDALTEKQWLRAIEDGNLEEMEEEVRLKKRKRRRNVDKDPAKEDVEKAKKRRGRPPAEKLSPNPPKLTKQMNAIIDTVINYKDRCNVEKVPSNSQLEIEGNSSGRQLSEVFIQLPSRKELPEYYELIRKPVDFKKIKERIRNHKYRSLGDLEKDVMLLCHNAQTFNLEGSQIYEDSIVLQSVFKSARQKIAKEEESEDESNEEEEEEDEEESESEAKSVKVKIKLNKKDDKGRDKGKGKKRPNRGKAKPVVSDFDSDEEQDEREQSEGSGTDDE
Outline: as §1

| DC50 [1] [nM] | inhibition at 1 µM [1] [%] | DC50 [2] [nM] | SMARCA2 % Degradation @ 1 μM [2] | SMILES |
| --- | --- | --- | --- | --- |
| < 50 | > 70 | 50 to 500 | +++ (+++=>70%) | C[C@H]1CCN(c2cc(-c3ccccc3O)nnc2N)CCN1c1ccnc(C#CCNC(=O)c2cc3ncccn3n2)n1 [Compound P-102, (S)-N-(3-(4-(4-(3-amino-6-(2-hydroxyphenyl)pyridazin-4-yl)-7-methyl-1,4-diazepan-1-yl)pyrimidin-2-yl)prop-2-yn-1-yl)pyrazolo[1,5-a]pyrimidine-2-carboxamide] |
| 500 to 5000 | 30 to 70 | 50 to 500 | +++ (+++=>70%) | CC(C)c1cc(C(C)C)n(CC#Cc2nccc(N3CCCN(c4cc(-c5ccccc5O)nnc4N)CC3)n2)n1 [Compound P-104, 2-(6-amino-5-(4-(2-(3-(3,5-diisopropyl-1H-pyrazol-1-yl)prop-1-yn-1-yl)pyrimidin-4-yl)-1,4-diazepan-1-yl)pyridazin-3-yl)phenol] |
| < 50 | > 70 | 50 to 500 | +++ (+++=>70%) | CC(C)(C)OC(=O)N1Cc2cn(CC#Cc3nccc(N4CCCN(c5cc(-c6ccccc6O)nnc5N)CC4)n3)nc2C1 [Compound P-105, tert-butyl 2-(3-(4-(4-(3-amino-6-(2-hydroxyphenyl)pyridazin-4-yl)-1,4-diazepan-1-yl)pyrimidin-2-yl)prop-2-yn-1-yl)-2,6-dihydropyrrolo[3,4-c]pyrazole-5(4H)-carboxylate] |
| < 50 | > 70 | < 50 | +++ (+++=>70%) | CN(CC#Cc1nccc(N2CCCN(c3cc(-c4ccccc4O)nnc3N)CC2)n1)c1nc2ccccc2o1 [Compound P-107, 2-(6-amino-5-(4-(2-(3-(benzo[d]oxazol-2-yl(methyl)amino)prop-1-yn-1-yl)pyrimidin-4-yl)-1,4-diazepan-1-yl)pyridazin-3-yl)phenol] |
| 50 to 500 | > 70 | 50 to 500 | +++ (+++=>70%) | Cn1ccc(OCC#Cc2nccc(N3CCCN(c4cc(-c5ccccc5O)nnc4N)CC3)n2)n1 [Compound P-108, 2-(6-amino-5-(4-(2-(3-((1-methyl-1H-pyrazol-3-yl)oxy)prop-1-yn-1-yl)pyrimidin-4-yl)-1,4-diazepan-1-yl)pyridazin-3-yl)phenol] |
| 50 to 500 | 30 to 70 | < 50 | +++ (+++=>70%) | Nc1nnc(-c2ccccc2O)cc1N1CCCN(c2ccnc(C#CCn3ccn4nccc4c3=O)n2)CC1 [Compound P-109, 5-(3-(4-(4-(3-amino-6-(2-hydroxyphenyl)pyridazin-4-yl)-1,4-diazepan-1-yl)pyrimidin-2-yl)prop-2-yn-1-yl)pyrazolo[1,5-a]pyrazin-4(5H)-one] |
| 50 to 500 | > 70 | 50 to 500 | +++ (+++=>70%) | Nc1nnc(-c2ccccc2O)cc1N1CCCN(c2ccnc(/C=C/CNC(=O)c3cnc4ccccc4n3)n2)CC1 [Compound P-110, (E)-N-(3-(4-(4-(3-amino-6-(2-hydroxyphenyl)pyridazin-4-yl)-1,4-diazepan-1-yl)pyrimidin-2-yl)allyl)quinoxaline-2-carboxamide] |
| 50 to 500 | 30 to 70 | 50 to 500 | +++ (+++=>70%) | Cc1c(C(=O)NC/C=C/c2nccc(N3CCCN(c4cc(-c5ccccc5O)nnc4N)CC3)n2)nn(C)c1C [Compound P-111, (E)-N-(3-(4-(4-(3-amino-6-(2-hydroxyphenyl)pyridazin-4-yl)-1,4-diazepan-1-yl)pyrimidin-2-yl)allyl)-1,4,5-trimethyl-1H-pyrazole-3-carboxamide] |
| 50 to 500 | > 70 | 50 to 500 | +++ (+++=>70%) | Nc1nnc(-c2ccccc2O)cc1N1CCCN(c2ccnc(/C=C/CNC(=O)c3cc4ncccn4n3)n2)CC1 [Compound P-112, (E)-N-(3-(4-(4-(3-amino-6-(2-hydroxyphenyl)pyridazin-4-yl)-1,4-diazepan-1-yl)pyrimidin-2-yl)allyl)pyrazolo[1,5-a]pyrimidine-2-carboxamide] |
| 500 to 5000 | < 30 | 50 to 500 | ++ (++=30-70%) | NC/C=C/c1nccc(N2CCCN(c3cc(-c4ccccc4O)nnc3N)CC2)n1 [Compound P-113, (E)-2-(6-amino-5-(4-(2-(3-aminoprop-1-en-1-yl)pyrimidin-4-yl)-1,4-diazepan-1-yl)pyridazin-3-yl)phenol] |
| 50 to 500 | 30 to 70 | 50 to 500 | +++ (+++=>70%) | CC(C)(C)OC(=O)NC/C=C/c1nccc(N2CCCN(c3cc(-c4ccccc4O)nnc3N)CC2)n1 [Compound P-114, tert-butyl (E)-(3-(4-(4-(3-amino-6-(2-hydroxyphenyl)pyridazin-4-yl)-1,4-diazepan-1-yl)pyrimidin-2-yl)allyl)carbamate] |
| 50 to 500 | 30 to 70 | 50 to 500 | +++ (+++=>70%) | Cc1nn2ccn(CC#Cc3nccc(N4CCCN(c5cc(-c6ccccc6O)nnc5N)CC4)n3)c(=O)c2c1C [Compound P-115, 5-(3-(4-(4-(3-amino-6-(2-hydroxyphenyl)pyridazin-4-yl)-1,4-diazepan-1-yl)pyrimidin-2-yl)prop-2-yn-1-yl)-2,3-dimethylpyrazolo[1,5-a]pyrazin-4(5H)-one] |
| 50 to 500 | 30 to 70 | 50 to 500 | +++ (+++=>70%) | Nc1nnc(-c2ccccc2O)cc1N1CCCN(c2ccnc(C#CCn3ncc4ccncc43)n2)CC1 [Compound P-116, 2-(5-(4-(2-(3-(1H-pyrazolo[3,4-c]pyridin-1-yl)prop-1-yn-1-yl)pyrimidin-4-yl)-1,4-diazepan-1-yl)-6-aminopyridazin-3-yl)phenol] |
| 50 to 500 | 30 to 70 | 50 to 500 | ++ (++=30-70%) | Nc1nnc(-c2ccccc2O)cc1N1CCN(c2ccnc(C#CCNC(=O)c3cnn4cccc(F)c34)n2)CC1 [Compound P-117, N-(3-(4-(4-(3-amino-6-(2-hydroxyphenyl)pyridazin-4-yl)piperazin-1-yl)pyrimidin-2-yl)prop-2-yn-1-yl)-4-fluoropyrazolo[1,5-a]pyridine-3-carboxamide] |
| 50 to 500 | 30 to 70 | 50 to 500 | ++ (++=30-70%) | Nc1nnc(-c2ccccc2O)cc1N1CCN(c2ccnc(C#CCNC(=O)c3nc4ccccc4s3)n2)CC1 [Compound P-118, N-(3-(4-(4-(3-amino-6-(2-hydroxyphenyl)pyridazin-4-yl)piperazin-1-yl)pyrimidin-2-yl)prop-2-yn-1-yl)benzo[d]thiazole-2-carboxamide] |
| 500 to 5000 | 30 to 70 | 500 to 5000 | ++ (++=30-70%) | Nc1nnc(-c2ccccc2O)cc1N1CCCN(c2ccnc(C#CCNc3cc4ncccn4n3)n2)CC1 [Compound P-120, 2-(6-amino-5-(4-(2-(3-(pyrazolo[1,5-a]pyrimidin-2-ylamino)prop-1-yn-1-yl)pyrimidin-4-yl)-1,4-diazepan-1-yl)pyridazin-3-yl)phenol] |
| 50 to 500 | > 70 | 50 to 500 | +++ (+++=>70%) | CC(C)(C)OC(=O)NCC#Cc1nccc(N2CCCN(c3cc(-c4ccccc4O)nnc3N)CC2)n1 [Compound P-121, tert-butyl (3-(4-(4-(3-amino-6-(2-hydroxyphenyl)pyridazin-4-yl)-1,4-diazepan-1-yl)pyrimidin-2-yl)prop-2-yn-1-yl)carbamate] |
| 500 to 5000 | < 30 | 500 to 5000 | ++ (++=30-70%) | CC(=O)NCC#Cc1nccc(N2CCCN(c3cc(-c4ccccc4O)nnc3N)CC2)n1 [Compound P-122, N-(3-(4-(4-(3-amino-6-(2-hydroxyphenyl)pyridazin-4-yl)-1,4-diazepan-1-yl)pyrimidin-2-yl)prop-2-yn-1-yl)acetamide] |

| SMILES | DC50 [1] [nM] | inhibition at 1 µM [1] [%] | DC50 [2] [nM] | SMARCA2 % Degradation @ 1 μM [2] |
| --- | --- | --- | --- | --- |
| Cc1nn2ccn(CC#Cc3nccc(N4C5CCC4CN(c4cc(-c6ccccc6O)nnc4N)C5)n3)c(=O)c2c1C [Compound P-103, 5-(3-(4-(3-(3-amino-6-(2-hydroxyphenyl)pyridazin-4-yl)-3,8-diazabicyclo[3.2.1]octan-8-yl)pyrimidin-2-yl)prop-2-yn-1-yl)-2,3-dimethylpyrazolo[1,5-a]pyrazin-4(5H)-one] | 50 to 500 | 30 to 70 | 50 to 500 | +++ (+++=>70%) |
| Nc1nnc(-c2ccccc2O)cc1N1CC2CCC(C1)N2c1ccnc(C#CCNc2ncco2)n1 [Compound P-106, 2-(6-amino-5-(8-(2-(3-(oxazol-2-ylamino)prop-1-yn-1-yl)pyrimidin-4-yl)-3,8-diazabicyclo[3.2.1]octan-3-yl)pyridazin-3-yl)phenol] | 500 to 5000 | 30 to 70 | 500 to 5000 | ++ (++=30-70%) |
| Nc1nnc(-c2ccccc2O)cc1N1CC2CCC(C1)N2c1ccnc(C#CCNC(=O)c2cc3ncccn3n2)n1 [Compound P-119, N-(3-(4-(3-(3-amino-6-(2-hydroxyphenyl)pyridazin-4-yl)-3,8-diazabicyclo[3.2.1]octan-8-yl)pyrimidin-2-yl)prop-2-yn-1-yl)pyrazolo[1,5-a]pyrimidine-2-carboxamide] | 500 to 5000 | < 30 | > 5000 | + (+=<30%) |
